Literature values in patent US20040067267A1, “Process for preparation of cholesterol lowering compositions from garlic” (priority 2002, published 2004).

Legend:
[1] = system: mice
[2] = patients with primary hypercholesterolemia (Hoeg et al. 1984)
[3] = target: T1, HMG CoA reductase (Homo sapiens, UniProt P04035); settings: for lowering of plasma LDL cholesterol levels: alone; for decrease of LDL levels: given along with bile acid binding resin (Bilheimer et al 1983)
T1 sequence (P04035 1-888): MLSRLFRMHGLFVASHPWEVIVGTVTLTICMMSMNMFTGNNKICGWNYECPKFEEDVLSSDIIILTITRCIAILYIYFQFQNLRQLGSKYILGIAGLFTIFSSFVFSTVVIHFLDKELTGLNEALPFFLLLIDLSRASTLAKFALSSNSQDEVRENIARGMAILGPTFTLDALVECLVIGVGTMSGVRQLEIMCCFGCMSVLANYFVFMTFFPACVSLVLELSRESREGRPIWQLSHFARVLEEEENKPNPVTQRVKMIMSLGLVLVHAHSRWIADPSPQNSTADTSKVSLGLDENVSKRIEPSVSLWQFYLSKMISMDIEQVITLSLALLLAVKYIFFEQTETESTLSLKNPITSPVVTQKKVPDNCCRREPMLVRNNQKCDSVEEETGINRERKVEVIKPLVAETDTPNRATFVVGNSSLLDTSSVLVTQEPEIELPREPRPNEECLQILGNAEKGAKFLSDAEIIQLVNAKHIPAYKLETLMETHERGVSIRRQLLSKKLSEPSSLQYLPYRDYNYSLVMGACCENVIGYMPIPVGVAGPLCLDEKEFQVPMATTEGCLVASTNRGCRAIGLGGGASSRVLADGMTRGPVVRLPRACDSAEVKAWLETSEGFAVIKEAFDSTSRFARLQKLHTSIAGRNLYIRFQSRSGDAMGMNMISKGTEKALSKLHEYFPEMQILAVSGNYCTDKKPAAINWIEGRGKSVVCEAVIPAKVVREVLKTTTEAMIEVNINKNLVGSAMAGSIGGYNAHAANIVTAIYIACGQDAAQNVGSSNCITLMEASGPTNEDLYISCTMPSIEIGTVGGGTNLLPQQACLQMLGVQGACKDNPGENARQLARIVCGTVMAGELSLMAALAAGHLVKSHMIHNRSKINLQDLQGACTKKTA

For C=CCSSCC=C [diallyldisulfide], which “oral LD 50, female” value [1] is on record?
The value was 130 mg/kg b.wt.

What about the “oral LD 50, male” value [1] of the same molecule?
Its value is 145 mg/kg b.wt.

Which “reduction of LDL cholesterol” value [2] does the source give for NC[C@@H]1O[C@H](O[C@H]2[C@@H](O)[C@H](O[C@@H]3[C@@H](O)[C@H](N)C[C@H](N)[C@H]3O[C@H]3O[C@H](CN)[C@@H](O)[C@H](O)[C@H]3N)O[C@@H]2CO)[C@H](N)[C@@H](O)[C@@H]1O [Neomycin] here?
Its value is 15-20%.

What does the source list for CC[C@H](C)C(=O)O[C@H]1CCC=C2C=C[C@H](C)[C@H](CC[C@@H]3C[C@@H](O)CC(=O)O3)[C@H]21 [Compaction]?
lowering of plasma LDL cholesterol levels [3]: 30%; decrease of LDL levels [3]: 50%

For C=CCSC[C@H](N)C(=O)O [s-allyl-L-cysteine], which “oral LD 50, female” value [1] is on record?
Its value is 9390 mg/kg b.wt.

And the “oral LD 50, male” value [1]?
The value was 8890 mg/kg b.wt.

With mevinolin as the molecule, how does the “lowering of plasma LDL cholesterol levels” value [3] read?
The value was 30%.

And the “decrease of LDL levels” value [3]?
Its value is 50%.

What does the source list for C=CCSCC=C [diallyl sulfide]?
oral LD 50, female [1]: 1805 mg/kg b.wt; oral LD 50, male [1]: 2029 mg/kg b.wt

Which results are given for C=CCS[S+]([O-])CC=C (stereo not shown) [allicin]?
oral LD 50, female [1]: 363 mg/kg b.wt; oral LD 50, male [1]: 309 mg/kg b.wt
